Data published in publication PMC10224356, “Trisubstituted 1,3,5-Triazines as Histamine H4 Receptor Antagonists with Promising Activity In Vivo” (Molecules, 2023).

Legend:
[1] = molecular target: T1, human histamine H4 receptor (Homo sapiens, UniProt Q9H3N8); experiment: [3H]histamine displacement assay, membranes of Sf9 cells expressing hH4R with Gαi2 and Gβ1γ2; assay type: binding; details: Sf9 membranes, mean within 95% CI
T1 construct: made in house; host or cells: Sf9 cells (membrane preparations)
Method: The affinity of compounds 2–20 for hH4R was evaluated in a binding assay as previously described. [^3H]Histamine was used as a radioligand and hH4R was expressed in Sf9 cells with G protein Gαi2 and Gβ1γ2 subunits. The pharmacological results represented as Ki values are listed in Table 1 (for alicyclic derivatives) and Table 2 (for aliphatic derivatives). […] Results depended on the substituent in the four positions of a triazine (a main structure).
Affinities of all triazine derivatives were determined in a [^3H] histamine (f.c. 10 nM) displacement assay using membrane preparations from Sf9 cells expressing human H4R and co-expressed with Gαi2 and Gβ1γ2 subunits as described previously. Nonspecific binding was determined in the presence of unlabelled JNJ7777120 ([…]).

[2] = PAMPA assay (blood-brain barrier permeability); assay type: in vitro ADME
Method: This test is a popular method for estimating the possibility of crossing BBB through passive transport. […] Caffeine was used as a standard well-permeable compound.
The Gentest^TM PAMPA Plate System, purchased from Corning (Tewksbury, MA, USA), was used for permeability evaluation. Caffeine (a reference) and the compound tested were dissolved in DMSO (10 mM stocks) and after dilution to 200 μM in PBS (pH 7.4), added to donor wells. Then, after incubation for 5 h at room temperature, concentrations of tested compounds in donor and acceptor wells were estimated by the mass spectra (LC/MS) method as described previously. The UPLC/MS Waters […] TQD system with the TQ Detector (Waters, Milford, CT, USA) was used for this detection. The assay was performed in triplicate. The permeability value (Pe) was calculated using the formula described by Chen et al..

mice [3] = experiment: Histamine-induced pruritus; assay type: in vivo; details: 25 mg/kg i.p.
Method: Intradermal injection of histamine induced scratching bouts in the amount of 62.11 ± 9.4. […].
(§1) The surface (around 2 cm^2) of the mice’s nape was shaved at least 2 days prior to experiments. On the day of the experiment, mice were individually placed in plastic chambers (15 × 15 × 30 cm) and after the 30 min habituation period, they were given an intradermal (i.d.) injection of histamine dihydrochloride (10 µmol/site) or chloroquine (CQ, 200 µg/site), which were dissolved in physiological saline and administrated in the constant volume of 20 μL. Immediately after the injection, scratching (series of movements considered as a single scratching bout) of the injected site by the hind paw was counted for 60 min or 30 min after histamine and CQ administration, respectively. Before pruritogens injection different groups of mice were treated i.p. with vehicle (10 mL/kg, negative control) or the dose–response of investigated compound.
(§2) Figure 9 The effect of compound 6 and reference compound pyrilamine (Pyr) on the number of scratching bouts during 60 min-long observation in histamine-induced pruritus (A) and 30 min-long observation in chloroquine-induced pruritus (B). The tested compound or vehicle (1% solution of Tween 80) was administered intraperitoneally (i.p.) 30 min before the intradermal (i.d.) injection of histamine or chloroquine. The results are presented as bar plots showing the mean ± SEM. Statistical analysis: one-way ANOVA followed by Dunnett’s post hoc test, * p < 0.05, ** p < 0.01, *** p < 0.001, n = 8–10 mice per group.

mice [4] = experiment: Chloroquine-induced pruritus; assay type: in vivo
Excerpt: When comparing the activity of the tested in both used models, it should be noted that the efficacy (higher maximal effect) and potency (lower doses needed to obtain the same result) of the compound were better in histamine-induced pruritus. Nevertheless, compound 6 was also active in histamine-independent itch, which contrasts with the activity of pyrilamine representing a commonly used drug in the treatment of pruritus. […] The wide spectrum of antipruritic activity of compound 6 is very promising, considering that histamine-independent itch is still a crucial clinical problem in pruritus treatment.
as §1, §2

H1R = H1R (Homo sapiens, UniProt P35367); experiment: Preliminary study at H1R
hH4R [5] = molecular target: T2, hH4R (Homo sapiens, UniProt Q9H3N8); experiment: cAMP accumulation assay (LANCE Ultra cAMP, CHO-K1 cells stably expressing hH4R); assay type: cell-based; parameters: expressed in transfected cells
Method: Intrinsic activity via the Gα subunit was measured using a LANCE Ultra cAMP detection kit and CHO-K1 cells stably expressing hH4R. Adenyl cyclase was stimulated by forskolin (10 µM).
Intrinsic activity in G protein-dependent pathway was measured with homogenous TR-FRET immunoassay, using LANCE Ultra cAMP kit and CHO-K1 H4R cell line or γ-irradiated recombinant CHO-K1 H4R cells (all from PerkinElmer). […] If the CHO-K1 H4R cell line was used it had been cultivated in DMEM/F12 10% FBS 400 µg/mL geneticin and passaged three times a week. […] The antagonist activity was measured in a white, opaque, 384-well microplate (PerkinElmer) with a total volume of 20 µL. […] After incubation, 5 µL of europium chelate-labelled cAMP tracer and 5 µl of ULight-labelled anti-cAMP mAb working solutions were added, mixed and incubated for 1 h. TR-FRET signal was read using a microplate reader (PerkinElmer, Waltham, MA, USA).

hH4R [6] = molecular target: T2, hH4R; experiment: as above; assay type: cell-based; parameters: expressed in transfected cells; details: antagonist mode

H1R, sequence (P35367 whole entry, species assumed): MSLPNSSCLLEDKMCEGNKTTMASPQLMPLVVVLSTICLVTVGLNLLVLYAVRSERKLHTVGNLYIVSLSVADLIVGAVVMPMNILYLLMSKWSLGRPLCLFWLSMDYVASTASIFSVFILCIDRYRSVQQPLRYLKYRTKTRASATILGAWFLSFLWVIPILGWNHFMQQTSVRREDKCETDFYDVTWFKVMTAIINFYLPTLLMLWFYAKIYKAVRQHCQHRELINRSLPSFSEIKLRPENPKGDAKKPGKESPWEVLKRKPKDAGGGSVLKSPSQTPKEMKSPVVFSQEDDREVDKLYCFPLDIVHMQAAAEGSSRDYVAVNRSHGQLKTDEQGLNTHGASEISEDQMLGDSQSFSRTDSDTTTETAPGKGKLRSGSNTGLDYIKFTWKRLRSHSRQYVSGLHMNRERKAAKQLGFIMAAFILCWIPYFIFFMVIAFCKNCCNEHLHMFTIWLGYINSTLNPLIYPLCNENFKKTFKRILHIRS

Ki [1]: 63 nM
Mass Retention (R) ([2]; 200 µM, 5 h): 3.15%
Papp at 5 h, 200 µM ([2]; PBS pH 7.4, permeable if Pe > 1.5 × 10^−6 cm/s, read-out: Pe (permeability coefficient) ± SD): 12.3 ± 0.31 ×10⁻⁶ cm/s
H1R activity at 10 µM (H1R): 0%
melting point: 165 to 168 °C
IC50 (hH4R [5]; antagonist mode, forskolin 10 µM, histamine 140 nM, CHO-K1 hH4R cells, read-out: cAMP hH4R IC50 ± SEM): 10 ± 2 nM
Kb (hH4R [5]; calculated from IC50 by Leff–Dougall variant of Cheng–Prusoff equation, read-out: pKb cAMP ± SEM (converted)): 3.55 nM
cAMP hH4R % of max. Antagonist Activity at 10 µM (hH4R [6]): 100%
SMILES: CN1CCN(c2nc(N)nc(CC3CCCC3)n2)CC1 [Compound 6, 4-(Cyclopentylmethyl)-6-(4-methylpiperazin-1-yl)-1,3,5-triazin-2-amine]
Scratch bouts, histamine-induced pruritus, % of the control value (mice [3]; 60 min observation): 13.47 % of the control value
Number of scratch bouts, histamine-induced pruritus (mice [3]; 60 min observation (control 62.11 ± 9.4)): 8.37 ± 1.96 scratch bouts
Scratch bouts, chloroquine-induced pruritus, % of the control value (mice [4]; 50 mg/kg i.p., 30 min observation): 25.12 % of the control value
Number of scratch bouts, chloroquine-induced pruritus (mice [4]; 50 mg/kg i.p., 30 min observation (control 72.20 ± 11.59)): 18.14 ± 3.48 scratch bouts
Effect on number of scratch bouts, chloroquine-induced pruritus (mice [4]; doses 25 mg/kg and 50 mg/kg i.p.): significantly decreased the number of scratch bouts
Effect on number of scratch bouts, chloroquine-induced pruritus (mice [4]; doses of 6.25 mg/kg and 12.5 mg/kg i.p.): not statistically significant
